Experiments:
Alzheimer's patients = conditions: cilostazol alone in Alzheimer's patients, Non-patent Document 10; cited from earlier work
Tg-SwDI mice [1] = assay: Perivascular Aβ deposition by immunohistochemical staining; type: in vivo; conditions: vs ordinary feed group
Description: To verify interstitial flow improvement by cilostazol, inhibition of deposition of harmful proteins on the cerebrovascular lymph drainage pathway by cilostazol was examined by using a cerebral amyloid angiopathy model. Totally unlike a drainage system through a specific receptor or antigen-antibody reaction, drainage of harmful proteins through the interstitial flow is a general drainage system irrespective of the type and amount of proteins, and Aβ in these examples is merely an example of intracerebral harmful proteins for which the interstitial flow is improved so that deposition on the cerebrovascular lymph drainage pathway is inhibited.
After 15 months from the start of breeding, with respect to Tg-SwDI mice of a group administered with cilostazol-containing feed for 13.5 months and Tg-SwDI mice of the ordinary feed administered group, the brain was perfusion-fixed by using 4% paraformaldehide, and the extracted brain was dehydrated for one day. Then, a paraffin block of a fixed brain tissue was prepared, and a paraffin block was sliced to 6 microns with a microtome. […] An ImageJ (NIH) was used as image analysis software. Five regions of interest were randomly selected from the frontal lobe and the hippocampus region in a tissue section, and photographed in a field with a magnification of 200. The measured data was analyzed by using a t test.

Tg-SwDI mice [2] = assay: Cerebral artery reactivity to CO2 supply (vascular pulsation driving force) in Tg-SwDI mice; type: in vivo; conditions: vs ordinary feed group
Description: In brain interstitial flow in a central nervous system, vascular wall motion caused by vascular pulsation of artery serves as a driving force so that harmful proteins are excreted (see Mechanisms to explain the reverse perivascular transport of solutes out of the brain. J Theor Biol. 2006 Feb. 21; 238(4): 962-74), Dilation of artery in vascular pulsation is caused by an increased blood pressure in artery due to pulsation of heart, and a decrease in dilation ability of artery attenuates vascular wall motion, and also reduces the interstitial flow. […] The degree of vascular elasticity in cerebral artery can be evaluated by using reactivity with a change in the concentration of blood carbon dioxide. Specifically, cerebral artery whose vascular elasticity and vascular pulsation driving force are maintained, has the ability of sufficiently dilating the vessel diameter afer an increase in the concentration of blood carbon dioxide, and maintains excretion ability for harmful proteins through h interstitial flow. On the other hand, cerebral artery whose vascular elasticity and vascular pulsation driving force are decreased, loses the ability of sufficiently dilating the vessel diameter in response to an increase in the concentration of blood carbon dioxide, and has its escretion ability for harmful proteins impaired. […]

dementia patients [3] = assay: Retrospective clinical survey, MMSE change in dementia patients with first MMSE score less than or equal to 21; type: in vivo, human
Description: Thus, it is not worth referring to these reports. It is assumed that a considerable degree of irreversible neurodegeneration has progressed in dementia patients, and in view of the action mechanism of the interstitial flow-improving agent, a sufficient therapeutic effect of the interstitial flow-improving agent might not be present for dementia patients. Thus, to evaluate the influence of consecutive oral administration of cilostazol on the cognitive function, a survey of consecutive cases (3183 cases in total) for which record of cilostazol administration between 1996 and 2012 exists was conducted, and examination was conducted by using all the cases matching the following conditions. In this study, to eliminate the influence of anti-dementia drugs, patients administered with anti-dementia drugs such as donepezil were removed from the analysis.
(i) The mini mental state exam (MMSE), which is a typical test of cognitive function, was conducted twice or more with an interval of 6 months or more (in a case where the MMSE was performed three or more times, two examination results of the first examination and the last examination were selected);
(ii) The first MMSE score was less than or equal to 21;
(iii) A case in which cilostazol was administered in a period at least more than a half of an MMSE observation period was selected as a group (hereinafter referred to as a treated group) subjected to consecutive treatment; and
(iv) A case in which cilostazol was administered in two months or less in an MMSE observation period was selected as a group (hereinafter referred to as an untreated group) not subjected to consecutive treatment.
(i) The rate of change in MMSE score in each group (calculation method: [last MMSE score−first MMSE score]/MMSE observation period [years]). In comparison between the two groups, statistical analysis was conducted such that the rate difference was obtained by using a chi-square test and other items were obtained by using a t test.

MCI patients = assay: Clinical record analysis, MMSE change in MCI patients (MMSE 22 to 26) under donepezil hydrochloride oral administration; type: in vivo, human; conditions: additional oral cilostazol in MCI patients under donepezil hydrochloride
Description: Patients subjected to oral administration of donepezil hydrochloride, having an observation period of one or more years before the MMSE test date, and having first MMSE scores less than or equal to 26 were picked up from a clinical record. Among the patients, patients recorded to have been consecutively administered with cilostazol for 6 months or more in the observation period were classified as a donepezil hydrochloride and cilostazol combined use group (69 cases), and patients recorded to have experienced no cilostazol oral administration were classified as a donepezil hydrochloride single use group (87 cases). Cilostazol was oral-administered at a dosage of 50 to 200 mg/day in the morning and evening, and donepezil hydrochloride was administered at a dosage of 5 mg/day once in a day. Among the patients, patients with MMSE scores greater than or equal to 22 and less than or equal to 26 were extracted as an MCI patient group. Then, 36 cases (16 males and 20 females, average age: 78.4 years old) of the donepezil hydrochloride single use group (hereinafter referred to as a single use group) and 34 cases (15 males and 19 females, average age: 77.2 years old) of the donepezil hydrochloride and cilostazol combined use group (hereinafter referred to as combined use group) were found. The average dosage of cilostazol in the combined use group was 121 mg/day. […] Measurement of MMSE was conducted at least twice in the observation period, and the first and last test results were selected for analysis.

dementia patients [4] = assay: Clinical record analysis, MMSE change in dementia patients (MMSE less than or equal to 21) under donepezil hydrochloride oral administration; type: in vivo, human; conditions: dementia patients oral-administered with donepezil hydrochloride
Description: Patients subjected to oral administration of donepezil hydrochloride, having an observation period of one or more years before the MMSE test date, and having first MMSE scores less than or equal to 26 were picked up from a clinical record. Among the patients, patients recorded to have been consecutively administered with cilostazol for 6 months or more in the observation period were classified as a donepezil hydrochloride and cilostazol combined use group (69 cases), and patients recorded to have experienced no cilostazol oral administration were classified as a donepezil hydrochloride single use group (87 cases). Cilostazol was oral-administered at a dosage of 50 to 200 mg/day in the morning and evening, and donepezil hydrochloride was administered at a dosage of 5 mg/day once in a day.
As a dementia patient group oral-administered with donepezil hydrochloride, patients with MMSE scores less than or equal to 21 were extracted. Then, the donepezil hydrochloride single use group (the single use group) was 51 cases (17 males and 34 females, average age: 78.2 years old) and the donepezil hydrochloride and cilostazol combined use group (the combined use group) was 35 cases (14 males and 21 females, average age: 79.3 years old). The average dosage of cilostazol in the combined use group was 139 mg/day.

## O=C1CCc2cc(OCCCCc3nnnn3C3CCCCC3)ccc2N1 [cilostazol, 6-[4-(1-cyclohexyl-1H-tetrazole-5-yl)butoxy]3,4-dihydrocarbostyril]
Alzheimer's patients
  mini-mental state examination (MMSE): no change is observed
Tg-SwDI mice [1]; cilostazol-containing feed for 8 months from 4 months of age, FIG. 15
  deposition of Aβ on the perivascular site: reduced
Tg-SwDI mice [1]; cilostazol-containing feed for 13.5 months from 1.5 months of age, FIG. 16
  deposition of Aβ on the perivascular site: reduced
Tg-SwDI mice [1]; frontal lobe and hippocampus, FIGS. 13 and 14
  amount of Aβ deposited on a perivascular site: smaller
Tg-SwDI mice [2]; 5% CO2, cilostazol-containing feed for 13.5 months, age 15 months, FIG. 5
  cerebral artery vasodilation ability with the CO2 supply (relative increase in cerebrovascular diameter): significantly enhances cerebral artery vasodilation ability
Tg-SwDI mice [2]; cilostazol-containing feed for 8 months, age 12 months, FIG. 6
  cerebral artery vasodilation ability (relative increase rate of the vessel diameter) by the CO2 supply: significantly increases the cerebral artery vasodilation ability
Dementia patients [3]; dementia treated group (19 cases), first MMSE less than or equal to 21, average±standard error, P value 0.21 vs untreated
  rate of change in MMSE score: 0.5±0.7 /year
Dementia patients [3]; first MMSE less than or equal to 21, treated vs untreated
  therapeutic effects on dementia: no statistically significant therapeutic effects on dementia were observed
Dementia patients [3]; untreated group of dementia survey
  side effects leading to no consecutive cilostazol treatment: side effects such as diarrhea and headaches
MCI patients
  reduction of the annual decrease rate of MMSE scores: about 80%
Dementia patients [4]
  effectiveness for dementia: no effectiveness for dementia
